From patent US12036193B2, “Synergistic bioactive compositions for treating neurological disorders” (priority 2019, dated 2024)

How the values were obtained:
TNF alpha = assay: Rat TNF alpha level after global cerebral ischemia/reperfusion; type: in vivo, Wistar rats; conditions: mean ± SEM, n=6; oral 10 days, 30 min ischemia on 7th day + 72 hrs reperfusion; Standard 9.3, Agmatine sulphate 310, Bio-optimized PEA 372, combination 310+372 mg/kg; I/R control 172.17 ± 6.35
Interleukin - 6 = assay: Rat Interleukin-6 level after global cerebral ischemia/reperfusion; type: in vivo, Wistar rats; conditions: mean ± SEM, n=6; oral 10 days, 30 min ischemia on 7th day + 72 hrs reperfusion; Standard 9.3, Agmatine sulphate 310, Bio-optimized PEA 372, combination 310+372 mg/kg; I/R control 121.83 ± 1.65
[1] = Rat body weight in global ischemia reperfusion induced brain injury study; conditions: n=6, Standard 9.3 mg/kg, Agmatine sulphate 310 mg/kg, Bio-optimized PEA 372 mg/kg, combination 310+372 mg/kg, p.o. daily
[2] = Rat feed consumption in global ischemia reperfusion induced brain injury study; conditions: Standard 9.3 mg/kg, Agmatine sulphate 310 mg/kg, Bio-optimized PEA 372 mg/kg, combination 310+372 mg/kg, p.o. daily

## N=C(N)NCCCCN.O=S(=O)(O)O [Agmatine sulphate, 1-(4-Aminobutyl)guanidine sulfate]
TNF alpha
  TNF alpha Level: 142.00 ± 1.53 pg/mL
Interleukin - 6
  Interleukin - 6 Levels: 91.39 ± 0.92 pg/mL
[1]; Week 01, mean ± SEM
  Body Weight, Week 01: 224.33 ± 0.42 gm
[1]; basal, mean ± SEM
  Body Weight, Basal: 215.00 ± 0.73 gm
[2]
  Feed Consumption, Week 01: 99.57 ± 1.19 gm
